Reference: publication PMC3608555, “The HopQ1 Effector’s Nucleoside Hydrolase-Like Domain Is Required for Bacterial Virulence in Arabidopsis and Tomato, but Not Host Recognition in Tobacco” (PLoS ONE, 2013)

Molecular target: RihB (MBP:RihB) (Escherichia coli, UniProt P33022)
Settings: high activity, data not shown

Sequence of RihB (MBP:RihB) (P33022 whole entry): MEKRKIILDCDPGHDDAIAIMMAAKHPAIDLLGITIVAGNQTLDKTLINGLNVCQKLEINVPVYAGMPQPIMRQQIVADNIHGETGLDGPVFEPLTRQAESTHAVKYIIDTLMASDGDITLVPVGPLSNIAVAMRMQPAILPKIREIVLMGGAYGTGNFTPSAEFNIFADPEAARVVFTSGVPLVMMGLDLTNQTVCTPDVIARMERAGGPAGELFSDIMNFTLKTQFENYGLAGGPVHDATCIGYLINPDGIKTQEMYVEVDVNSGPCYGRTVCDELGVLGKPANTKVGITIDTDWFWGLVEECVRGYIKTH

## O=c1ccn([C@@H]2O[C@H](CO)[C@@H](O)[C@H]2O)c(=O)[nH]1 [uridine]
  nucleoside hydrolase activity assay: MBP:RihB showed high enzymatic activity for cytidine and uridine
